Data published in PubChem BioAssay AID330 (DTP/NCI, 2004).
Values joined by “and” are separate entries in the source; they are usually repeats but may differ in a detail not shown here. Equal entries are not always repeated. Toxic doses and inconclusive results are not listed.

System: P388 leukemia ip, CD2F1 mice, survival T/C
Test: NCI In Vivo Anticancer Drug Screen. Data for tumor model P388 Leukemia (intraperitoneal) in CD2F1 (CDF1) mice
Settings: endpoint: median survival time, higher = longer survival
In short: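 Mice carrying the transplanted tumor received test compound or vehicle. Survival was recorded in each group, and the value is the treated-group measurement divided by that of the vehicle-treated control group.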

[1] = dose: 12.5 mg/kg/injection, schedule: Q04DX003 (ip), vehicle: Klucel (hydroxypropylcellulose) (HPC)
[2] = dose: 25.0 mg/kg/injection, schedule: Q04DX003 (ip), vehicle: Klucel (hydroxypropylcellulose) (HPC)
[3] = dose: 50.0 mg/kg/injection, schedule: Q01DX009 (ip), vehicle: saline with Tween-80
[4] = dose: 60.0 mg/kg/injection, schedule: Q01DX005 (ip), vehicle: Klucel (hydroxypropylcellulose) (HPC)
[5] = dose: 120.0 mg/kg/injection, schedule: Q01DX005 (ip), vehicle: Klucel (hydroxypropylcellulose) (HPC)
[6] = dose: 240.0 mg/kg/injection, schedule: Q01DX005 (ip), vehicle: Klucel (hydroxypropylcellulose) (HPC)
[7] = dose: 50.0 mg/kg/injection, schedule: Q01DX005 (ip), vehicle: Klucel (hydroxypropylcellulose) (HPC)
[8] = dose: 100.0 mg/kg/injection, schedule: Q01DX005 (ip), vehicle: Klucel (hydroxypropylcellulose) (HPC)
[9] = dose: 200.0 mg/kg/injection, schedule: Q01DX005 (ip), vehicle: Klucel (hydroxypropylcellulose) (HPC)
[10] = dose: 50.0 mg/kg/injection, schedule: Q01DX005 (ip), vehicle: saline with Tween-80
[11] = dose: 100.0 mg/kg/injection, schedule: Q01DX005 (ip), vehicle: saline with Tween-80
[12] = dose: 200.0 mg/kg/injection, schedule: Q01DX005 (ip), vehicle: saline with Tween-80
[13] = dose: 100.0 mg/kg/injection, schedule: Q01DX001 (ip), vehicle: Klucel (hydroxypropylcellulose) (HPC)
[14] = dose: 200.0 mg/kg/injection, schedule: Q01DX001 (ip), vehicle: Klucel (hydroxypropylcellulose) (HPC)
[15] = dose: 400.0 mg/kg/injection, schedule: Q01DX001 (ip), vehicle: Klucel (hydroxypropylcellulose) (HPC)

For `CCOC(=O)c1cc(=O)oc(=O)[nH]1`, the T/C (dose: 6.25 mg/kg/injection, schedule: Q04DX003 (ip), vehicle: Klucel (hydroxypropylcellulose) (HPC)) was 105 % of control, the T/C [1] was 112 % of control and the T/C [2] was 114 % of control. The T/C (dose: 100.0 mg/kg/injection, schedule: Q04DX003 (ip), vehicle: Klucel (hydroxypropylcellulose) (HPC)) was 89 % of control and the T/C (dose: 200.0 mg/kg/injection, schedule: Q04DX003 (ip), vehicle: Klucel (hydroxypropylcellulose) (HPC)) was 87 % of control.
For `Cc1ccc(NC(=O)Oc2ccc(Br)cc2Br)c([N+](=O)[O-])c1`, the T/C [3] was 115 % of control, the T/C (dose: 50.0 mg/kg/injection, schedule: Q04DX003 (ip), vehicle: saline with Tween-80) was 115 % of control and the T/C (dose: 100.0 mg/kg/injection, schedule: Q01DX009 (ip), vehicle: saline with Tween-80) was 115 % of control. For the same compound, the T/C (dose: 100.0 mg/kg/injection, schedule: Q04DX003 (ip), vehicle: saline with Tween-80) was 96 % of control, the T/C (dose: 200.0 mg/kg/injection, schedule: Q04DX003 (ip), vehicle: saline with Tween-80) was 99 % of control and the T/C (dose: 400.0 mg/kg/injection, schedule: Q04DX003 (ip), vehicle: saline with Tween-80) was 115 % of control.
With `COc1cc2c3c(n(C)c(=O)c2cc1OC)-c1cc2c(cc1C3=O)OCO2` the T/C (dose: 2.0 mg/kg/injection, schedule: Q01DX009 (ip), vehicle: distilled water + Tween-80) was 98 % of control, the T/C (dose: 4.0 mg/kg/injection, schedule: Q01DX009 (ip), vehicle: distilled water + Tween-80) was 100 % of control and the T/C (dose: 8.0 mg/kg/injection, schedule: Q01DX009 (ip), vehicle: distilled water + Tween-80) was 107 % of control. For the same compound, the T/C (dose: 16.0 mg/kg/injection, schedule: Q01DX009 (ip), vehicle: distilled water + Tween-80) was 98 % of control, the T/C (dose: 32.0 mg/kg/injection, schedule: Q01DX009 (ip), vehicle: distilled water + Tween-80) was 100 % of control and the T/C (dose: 64.0 mg/kg/injection, schedule: Q01DX009 (ip), vehicle: distilled water + Tween-80) was 99 % of control and 109 % of control. The T/C (dose: 128.0 mg/kg/injection, schedule: Q01DX009 (ip), vehicle: distilled water + Tween-80) was 111 % of control and 123 % of control and the T/C (dose: 256.0 mg/kg/injection, schedule: Q01DX009 (ip), vehicle: distilled water + Tween-80) was 100 % of control and 92 % of control.
In the case of `CS(=O)CC(C)(O)C1OC(=O)C=C2C3(C)CC4OC4C4(C)C(=O)OC(C34)C3OC231` (stereo not drawn), the T/C (dose: 2.5 mg/kg/injection, schedule: Q01DX009 (ip), vehicle: DMSO) was 108 % of control and the T/C (dose: 20.0 mg/kg/injection, schedule: Q01DX009 (ip), vehicle: DMSO) was 151 % of control.
In the case of `CC1OC(c2c(Cl)cccc2[N+](=O)[O-])OC1C` (stereo not drawn), the T/C [4] was 99 % of control, the T/C [5] was 91 % of control and the T/C [6] was 92 % of control.
In the case of `COC1(OC)C(c2ccc(Cl)cc2)C(C#N)(C#N)C1(OC)OC` (stereo not drawn), the T/C [4] was 100 % of control, the T/C [5] was 102 % of control and the T/C [6] was 96 % of control.
For `Cn1cnc([N+](=O)[O-])c1SCC(N)C(=O)O` (stereo not drawn), the T/C [7] was 94 % of control, the T/C [8] was 94 % of control and the T/C [9] was 94 % of control.
For `OCCNc1ncnc2cc(Cl)ccc12`, the T/C (dose: 25.0 mg/kg/injection, schedule: Q01DX005 (ip), vehicle: Klucel (hydroxypropylcellulose) (HPC)) was 98 % of control, the T/C [7] was 95 % of control and the T/C [8] was 105 % of control. The T/C [9] was 98 % of control.
In the case of `CCOC(=S)NS(=O)(=O)c1ccccc1`, the T/C (dose: 6.25 mg/kg/injection, schedule: Q01DX009 (ip), vehicle: saline with Tween-80) was 107 % of control, the T/C (dose: 12.5 mg/kg/injection, schedule: Q01DX009 (ip), vehicle: saline with Tween-80) was 102 % of control and the T/C (dose: 25.0 mg/kg/injection, schedule: Q01DX009 (ip), vehicle: saline with Tween-80) was 109 % of control. For the same compound, the T/C [3] was 116 % of control.
In the case of `COC1(C)OC23C(=O)N(C)C(=O)N(C)C2(O1)N(C(C)=O)C(=O)N3C` (stereo not drawn), the T/C [10] was 100 % of control, the T/C [11] was 105 % of control and the T/C [12] was 98 % of control.
`Cc1cc(Cl)nn2cc(C(=O)O)nc12` was tested, and the T/C (dose: 50.0 mg/kg/injection, schedule: Q01DX001 (ip), vehicle: Klucel (hydroxypropylcellulose) (HPC)) was 104 % of control, the T/C [13] was 96 % of control and the T/C [14] was 97 % of control.
For `CCOc1ccc(NC2OC(CO)C(O)C(O)C2NC(C)=O)cc1` (stereo not drawn), the T/C [10] was 105 % of control, the T/C [11] was 101 % of control and the T/C [12] was 96 % of control.
With `Brc1cc2cccnc2c2ccccc12` the T/C [13] was 98 % of control, the T/C [14] was 94 % of control and the T/C [15] was 97 % of control.
`CCOc1c(N=Nc2cccc(Cl)c2)c(-c2ccccc2)nn1C(N)=S` was tested, and the T/C [10] was 111 % of control, the T/C [11] was 101 % of control and the T/C [12] was 96 % of control.
In the case of `O=S(=O)(O)O.[Cu+2].[NH-]CCCCC[NH-].[NH-]CCCCC[NH-]`, the T/C (dose: 1.56 mg/kg/injection, schedule: Q04DX002 (ip), vehicle: Klucel (hydroxypropylcellulose) (HPC)) was 100 % of control, the T/C (dose: 3.12 mg/kg/injection, schedule: Q04DX002 (ip), vehicle: Klucel (hydroxypropylcellulose) (HPC)) was 98 % of control and the T/C (dose: 6.25 mg/kg/injection, schedule: Q04DX002 (ip), vehicle: Klucel (hydroxypropylcellulose) (HPC)) was 100 % of control. For the same compound, the T/C (dose: 12.5 mg/kg/injection, schedule: Q04DX002 (ip), vehicle: Klucel (hydroxypropylcellulose) (HPC)) was 88 % of control and 98 % of control.
In the case of `CN(C)C(=O)c1cccc2ccc[n+](C)c12`, the T/C (dose: 78.0 micrograms/kg/injection, schedule: Q04DX002 (ip), vehicle: saline) was 98 % of control, the T/C (dose: 156.0 micrograms/kg/injection, schedule: Q04DX002 (ip), vehicle: saline) was 99 % of control and the T/C (dose: 312.0 micrograms/kg/injection, schedule: Q04DX002 (ip), vehicle: saline) was 98 % of control.
With `COc1ccc(C2COc3c(ccc(O)c3O)C2)cc1` (stereo not drawn) the T/C (dose: 60.0 mg/kg/injection, schedule: Q01DX005 (ip), vehicle: saline with Tween-80) was 104 % of control, the T/C (dose: 120.0 mg/kg/injection, schedule: Q01DX005 (ip), vehicle: saline with Tween-80) was 96 % of control and the T/C (dose: 240.0 mg/kg/injection, schedule: Q01DX005 (ip), vehicle: saline with Tween-80) was 99 % of control.
For `COC(=O)[C@H](C)[C@@H]1CC[C@](C)(CCC2=C(C)CCCC2(C)C)OO1`, the T/C (dose: 4.38 mg/kg/injection, schedule: Q01DX005 (ip), vehicle: saline + Tween-80 + alcohol) was 93 % of control, the T/C (dose: 8.75 mg/kg/injection, schedule: Q01DX005 (ip), vehicle: saline + Tween-80 + alcohol) was 100 % of control and the T/C (dose: 17.5 mg/kg/injection, schedule: Q01DX005 (ip), vehicle: saline + Tween-80 + alcohol) was 94 % of control. For the same compound, the T/C (dose: 35.0 mg/kg/injection, schedule: Q01DX005 (ip), vehicle: saline + Tween-80 + alcohol) was 107 % of control.
With `CC1(C)CC(=O)C(CSCS)=C(O)C1` the T/C [13] was 114 % of control, the T/C [14] was 99 % of control and the T/C [15] was 92 % of control.
`C=C1C(C#N)=C(SC)SC(=S)N1CC` was tested, and the T/C (dose: 50.0 mg/kg/injection, schedule: Q01DX001 (ip), vehicle: saline with Tween-80) was 95 % of control, the T/C (dose: 100.0 mg/kg/injection, schedule: Q01DX001 (ip), vehicle: saline with Tween-80) was 92 % of control and the T/C (dose: 200.0 mg/kg/injection, schedule: Q01DX001 (ip), vehicle: saline with Tween-80) was 93 % of control. For the same compound, the T/C (dose: 400.0 mg/kg/injection, schedule: Q01DX001 (ip), vehicle: saline with Tween-80) was 95 % of control.
`CC(C)(C)C#CP(C#CC(C)(C)C)C#CC(C)(C)C` was tested, and the T/C [1] was 108 % of control, the T/C [2] was 106 % of control and the T/C (dose: 50.0 mg/kg/injection, schedule: Q04DX003 (ip), vehicle: Klucel (hydroxypropylcellulose) (HPC)) was 111 % of control.
`CC12NCCC(CC(=O)N1)C2(C)C` (stereo not drawn) was tested, and the T/C (dose: 60.0 mg/kg/injection, schedule: Q01DX005 (ip), vehicle: saline) was 103 % of control, the T/C (dose: 120.0 mg/kg/injection, schedule: Q01DX005 (ip), vehicle: saline) was 110 % of control and the T/C (dose: 240.0 mg/kg/injection, schedule: Q01DX005 (ip), vehicle: saline) was 106 % of control.
`Cc1nc2c([N+](=O)[O-])cc(Cl)cc2[nH]1` was tested, and the T/C (dose: 30.0 mg/kg/injection, schedule: Q01DX005 (ip), vehicle: Klucel (hydroxypropylcellulose) (HPC)) was 107 % of control, the T/C [4] was 107 % of control and the T/C [5] was 103 % of control.
